These compounds were tested against human orexin-2 receptor (Homo sapiens (Human), UniProt O43614) (assay: Human orexin 2 receptor radioligand binding ([3H]-EMPA competition)). Conditions: HEK293 cells stably expressing human orexin-2 receptor; [3H]-EMPA 5 nM final; apparent Ki=IC50/(1+C/Kd), Kd=2 nM; read-out: OR 2 Ki.
Sequence of human orexin-2 receptor (O43614 whole entry): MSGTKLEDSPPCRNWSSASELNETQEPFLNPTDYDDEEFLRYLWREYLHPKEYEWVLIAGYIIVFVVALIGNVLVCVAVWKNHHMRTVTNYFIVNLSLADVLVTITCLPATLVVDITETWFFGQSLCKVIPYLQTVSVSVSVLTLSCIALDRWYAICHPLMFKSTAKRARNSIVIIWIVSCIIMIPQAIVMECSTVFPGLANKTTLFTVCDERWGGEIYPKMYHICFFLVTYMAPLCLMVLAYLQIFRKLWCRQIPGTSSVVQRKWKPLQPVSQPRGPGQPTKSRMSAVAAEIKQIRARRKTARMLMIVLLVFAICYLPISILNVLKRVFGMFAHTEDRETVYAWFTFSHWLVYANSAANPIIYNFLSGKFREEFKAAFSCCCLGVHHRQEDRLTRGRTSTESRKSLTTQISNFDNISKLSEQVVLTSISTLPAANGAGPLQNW
`Cc1cc(C)nc(N2CC3CN(S(=O)(=O)c4ccccc4-c4ccccc4)CC3C2)n1` (stereo not shown) [Example 358, 2-([1,1′-Biphenyl]-2-ylsulfonyl)-5-(4,6-dimethylpyrimidin-2-yl)octahydropyrrolo[3,4-c]pyrrole] showed a Ki of 230 nM.
Work on `COc1ccccc1S(=O)(=O)N1CC2CN(c3nc(C)cc(C)n3)CC2C1` (stereo not shown) [Example 359, 2-(4,6-Dimethylpyrimidin-2-yl)-5-((2-methoxyphenyl)sulfonyl)octahydropyrrolo[3,4-c]pyrrole] yielded a Ki of 180 nM.
For `COc1ccccc1S(=O)(=O)N1CC2CN(c3ccc(C(F)(F)F)cn3)CC2C1` (stereo not shown) [Example 361, 2-((2-Methoxyphenyl)sulfonyl)-5-(5-(trifluoromethyl)pyridin-2-yl)octahydropyrrolo[3,4-c]pyrrole], the Ki was 4400 nM.
In the case of `COc1ccccc1S(=O)(=O)N1CC2CN(c3cnc4ccccc4n3)CC2C1` (stereo not shown) [Example 362, 2-(5-((2-Methoxyphenyl)sulfonyl)hexahydropyrrolo[3,4-c]pyrrol-2(1H)-yl)quinoxaline], the Ki is reported as 1800 nM.
`Cc1cc(C)nc(N2CC3CN(C(=O)c4ccc(F)cc4-c4ccccn4)CC3C2)n1` (stereo not shown) [Example 366, (5-(4,6-Dimethylpyrimidin-2-yl)hexahydropyrrolo[3,4-c]pyrrol-2(1H)-yl)(4-fluoro-2-(pyridin-2-yl)phenyl)methanone] gave a Ki of 23 nM.
Work on `Cc1cc(C)nc(N2CC3CN(C(=O)c4cccc(F)c4-c4ccccn4)CC3C2)n1` (stereo not shown) [Example 367, (5-(4,6-Dimethylpyrimidin-2-yl)hexahydropyrrolo[3,4-c]pyrrol-2(1H)-yl)(3-fluoro-2-(pyridin-2-yl)phenyl)methanone] yielded a Ki of 15 nM.
For `Cc1cc(C)nc(N2CC3CN(C(=O)c4ccc(F)cc4-c4ncco4)CC3C2)n1` (stereo not shown) [Example 369, (5-(4,6-Dimethylpyrimidin-2-yl)hexahydropyrrolo[3,4-c]pyrrol-2(1H)-yl)(4-fluoro-2-(oxazol-2-yl)phenyl)methanone], the Ki was 19 nM.
`Cc1cccc(-c2c(F)cccc2C(=O)N2CC3CN(c4nc(C)cc(C)n4)CC3C2)n1` (stereo not shown) [Example 370, (5-(4,6-Dimethylpyrimidin-2-yl)hexahydropyrrolo[3,4-c]pyrrol-2(1H)-yl)(3-fluoro-2-(6-methylpyridin-2-yl)phenyl)methanone] was tested, and the Ki was 84 nM.
Work on `Cc1cc(C)nc(N2CC3CN(C(=O)c4cccc(F)c4-c4ncccc4C)CC3C2)n1` (stereo not shown) [Example 371, (5-(4,6-Dimethylpyrimidin-2-yl)hexahydropyrrolo[3,4-c]pyrrol-2(1H)-yl)(3-fluoro-2-(3-methylpyridin-2-yl)phenyl)methanone] yielded a Ki of 3400 nM.
For `Cc1cc(C)nc(N2CC3CN(C(=O)c4cccc(F)c4-c4ncccc4Cl)CC3C2)n1` (stereo not shown) [Example 372, (2-(3-Chloropyridin-2-yl)-3-fluorophenyl)(5-(4,6-dimethylpyrimidin-2-yl)hexahydropyrrolo[3,4-c]pyrrol-2(1H)-yl)methanone], the Ki was 109 nM.
Work on `Cc1ccnc(-c2c(F)cccc2C(=O)N2CC3CN(c4nc(C)cc(C)n4)CC3C2)c1` (stereo not shown) [Example 373, (5-(4,6-Dimethylpyrimidin-2-yl)hexahydropyrrolo[3,4-c]pyrrol-2(1H)-yl)(3-fluoro-2-(4-methylpyridin-2-yl)phenyl)methanone] yielded a Ki of 42 nM.
`Cc1cc(C)nc(N2CC3CN(C(=O)c4cccc(F)c4-c4ncccc4F)CC3C2)n1` (stereo not shown) [Example 375, (5-(4,6-Dimethylpyrimidin-2-yl)hexahydropyrrolo[3,4-c]pyrrol-2(1H)-yl)(3-fluoro-2-(3-fluoropyridin-2-yl)phenyl)methanone] gave a Ki of 21 nM.
With `Cc1cc(C)nc(N2CC3CN(C(=O)c4cccc(F)c4-c4ncco4)CC3C2)n1` (stereo not shown) [Example 376, (5-(4,6-Dimethylpyrimidin-2-yl)hexahydropyrrolo[3,4-c]pyrrol-2(1H)-yl)(3-fluoro-2-(oxazol-2-yl)phenyl)methanone] the Ki was 17 nM.
With `COc1ccc(C(=O)N2CC3CN(c4ncc(F)c(C)n4)CC3C2)c(-n2nccn2)c1` (stereo not shown) [Example 377, 2-(5-Fluoro-4-methylpyrimidin-2-yl)-5-{[4-methoxy-2-(2H-1,2,3-triazol-2-yl)phenyl]carbonyl}octahydropyrrolo[3,4-c]pyrrole] the Ki was 17 nM.
Work on `COc1ccc(C(=O)N2CC3CN(c4ncc(Cl)c(C)n4)CC3C2)c(-n2nccn2)c1` (stereo not shown) [Example 378, 2-(5-Chloro-4-methylpyrimidin-2-yl)-5-{[4-methoxy-2-(2H-1,2,3-triazol-2-yl)phenyl]carbonyl}octahydropyrrolo[3,4-c]pyrrole] yielded a Ki of 10 nM.
Compound `COc1ccc(C(=O)N2CC3CN(c4nc(C)c(F)c(C)n4)CC3C2)c(-n2nccn2)c1` (stereo not shown) [Example 379, 2-(5-Fluoro-4,6-dimethylpyrimidin-2-yl)-5-{[4-methoxy-2-(2H-1,2,3-triazol-2-yl)phenyl]carbonyl}octahydropyrrolo[3,4-c]pyrrole] has a Ki of 9 nM.
For `COc1ccc(C(=O)N2CC3CN(c4ncc(C)c(C)n4)CC3C2)c(-n2nccn2)c1` (stereo not shown) [Example 380, 2-(4,5-Dimethylpyrimidin-2-yl)-5-{[4-methoxy-2-(2H-1,2,3-triazol-2-yl)phenyl]carbonyl}octahydropyrrolo[3,4-c]pyrrole], the Ki was 15 nM.
Work on `CCc1c(C)nc(N2CC3CN(C(=O)c4ncccc4-n4nccn4)CC3C2)nc1C` (stereo not shown) [Example 385, 2-(5-Ethyl-4,6-dimethylpyrimidin-2-yl)-5-{[3-(2H-1,2,3-triazol-2-yl)pyridin-2-yl]carbonyl}octahydropyrrolo[3,4-c]pyrrole] yielded a Ki of 42 nM.
Compound `Cc1cc(C)nc(N2CC3CN(C(=O)c4ncccc4-c4nc(C)no4)CC3C2)n1` (stereo not shown) [Example 386, 2-(4,6-Dimethylpyrimidin-2-yl)-5-{[3-(3-methyl-1,2,4-oxadiazol-5-yl)pyridin-2-yl]carbonyl}octahydropyrrolo[3,4-c]pyrrole] has a Ki of 940 nM.
For `O=C(c1cccc(F)c1-c1ncccn1)N1CC2CN(c3cnc4cc(F)c(F)cc4n3)CC2C1` (stereo not shown) [Example 387, (5-(6,7-Difluoroquinoxalin-2-yl)hexahydropyrrolo[3,4-c]pyrrol-2(1H)-yl)(3-fluoro-2-(pyrimidin-2-yl)phenyl)methanone], the Ki was 16 nM.
Work on `COc1ccc(C(=O)N2CC3CN(c4ncc5cc(F)ccc5n4)CC3C2)c(-n2nccn2)c1` (stereo not shown) [Example 388] yielded a Ki of 30 nM.
Work on `COc1ccc(C(=O)N2CC3CN(c4cnc5cc(F)c(F)cc5n4)CC3C2)c(-n2nccn2)c1` (stereo not shown) [Example 389, (5-(6,7-Difluoroquinoxalin-2-yl)hexahydropyrrolo[3,4-c]pyrrol-2(1H)-yl)(4-methoxy-2-(2H-1,2,3-triazol-2-yl)phenyl)methanone] yielded a Ki of 22 nM.
Compound `COc1ccc(C(=O)N2CC3CN(c4cc(N(C)C)ncn4)CC3C2)c(-n2nccn2)c1` (stereo not shown) [Example 390, (5-(6-(Dimethylamino)pyrimidin-4-yl)hexahydropyrrolo[3,4-c]pyrrol-2(1H)-yl)(4-methoxy-2-(2H-1,2,3-triazol-2-yl)phenyl)methanone] has a Ki of 190 nM.
With `COc1ccc(C(=O)N2CC3CN(c4cc(N(C)C)nc(C)n4)CC3C2)c(-n2nccn2)c1` (stereo not shown) [Example 391, (5-(6-(Dimethylamino)-2-methylpyrimidin-4-yl)hexahydropyrrolo[3,4-c]pyrrol-2(1H)-yl)(4-methoxy-2-(2H-1,2,3-triazol-2-yl)phenyl)methanone] the Ki was 28 nM.
`Cc1cccc(-c2ccc(F)cc2C(=O)N2CC3CN(c4nc(C)cc(C)n4)CC3C2)n1` (stereo not shown) [Example 399, (5-(4,6-Dimethylpyrimidin-2-yl)hexahydropyrrolo[3,4-c]pyrrol-2(1H)-yl)(5-fluoro-2-(6-methylpyridin-2-yl)phenyl)methanone] was tested, and the Ki was 570 nM.
`Cc1ccnc(-c2ccc(F)cc2C(=O)N2CC3CN(c4nc(C)cc(C)n4)CC3C2)c1` (stereo not shown) [Example 400, (5-(4,6-Dimethylpyrimidin-2-yl)hexahydropyrrolo[3,4-c]pyrrol-2(1H)-yl)(5-fluoro-2-(4-methylpyridin-2-yl)phenyl)methanone] was tested, and the Ki was 510 nM.
`Cc1ccc(-c2ccc(F)cc2C(=O)N2CC3CN(c4nc(C)cc(C)n4)CC3C2)nc1` (stereo not shown) [Example 401, (5-(4,6-Dimethylpyrimidin-2-yl)hexahydropyrrolo[3,4-c]pyrrol-2(1H)-yl)(5-fluoro-2-(5-methylpyridin-2-yl)phenyl)methanone] was tested, and the Ki was 830 nM.
With `Cc1cc(C)nc(N2CC3CN(C(=O)c4cc(F)ccc4-c4ncccc4F)CC3C2)n1` (stereo not shown) [Example 402, (5-(4,6-Dimethylpyrimidin-2-yl)hexahydropyrrolo[3,4-c]pyrrol-2(1H)-yl)(5-fluoro-2-(3-fluoropyridin-2-yl)phenyl)methanone] the Ki was 120 nM.
`Cc1cc(C)nc(N2CC3CN(C(=O)c4cc(F)ccc4-c4ccccn4)CC3C2)n1` (stereo not shown) [Example 403, (5-(4,6-Dimethylpyrimidin-2-yl)hexahydropyrrolo[3,4-c]pyrrol-2(1H)-yl)(5-fluoro-2-(pyridin-2-yl)phenyl)methanone] was tested, and the Ki was 180 nM.
`Cc1cc(C)nc(N2CC3CN(C(=O)c4cc(F)ccc4-c4ncco4)CC3C2)n1` (stereo not shown) [Example 404, (5-(4,6-Dimethylpyrimidin-2-yl)hexahydropyrrolo[3,4-c]pyrrol-2(1H)-yl)(5-fluoro-2-(oxazol-2-yl)phenyl)methanone] showed a Ki of 19 nM.

Same assay, conditions: read-out: OR 2 Ki
`Cc1ccc(-c2c(F)cccc2C(=O)N2CC3CN(c4nc(C)cc(C)n4)CC3C2)nc1` (stereo not shown) [Example 374, (5-(4,6-Dimethylpyrimidin-2-yl)hexahydropyrrolo[3,4-c]pyrrol-2(1H)-yl)(3-fluoro-2-(5-methylpyridin-2-yl)phenyl)methanone] was tested, and the Ki was 73 nM.
